In patent publication US10493060B2, “Spirocyclic compounds” (ZENO ROYALTIES & MILESTONES, LLC, priority 2015, dated 2019):

How the values were obtained:
[1] = system: 8505C (Thyroid) cells; test: Proliferation assay (CellTiter-Glo), 8505C; format: cell-based; settings: Homo sapiens, 72 h, 8505C cells, 3 days
Procedure: (§1) A375 (melanoma), Colo-205 (colon cancer), Miapaca (pancreatic), HPAFII (pancreatic), sNF02.0 (neurofibromatosis type 1), sNF96.2 (neurofibromatosis type 1) and 8505 (Thyroid) cells were grown and maintained in RPMI-1640 medium containing 100 U/mL penicillin-streptomycin and 10% fetal bovine serum. Cells were in growth medium in 96-well opaque-walled clear bottom plates and incubated the in the CO2 incubator overnight before treatment. Cells were treated with compounds diluted in DMSO and a 10 point 3-fold serial dilutions were done. Plates were placed in 37° C., 5% CO2 for to incubate for 3 days. Before they were developed by adding 100 μL of CellTiter-Glo reagent (Promega) to the assay plate, plates were shaken briefly for 2 mins and allowed to incubate at rt for 10 mins. The bottom of the plates was pasted with white back seal and luminescence was recorded with Flexstation3 with setting of luminescence, integration time 500 ms.

[2] = system: Colo-205 (colon cancer) cells; test: Proliferation assay (CellTiter-Glo), Colo-205; format: cell-based; settings: Homo sapiens, COLO 205, 72 h, Colo205 cells, 3 days
Procedure: as §1

[3] = system: sNF96.2 (neurofibromatosis type 1) cells; test: Proliferation assay (CellTiter-Glo), sNF96.2; format: cell-based; settings: 72 h, sNF96.2 cells, 3 days
Procedure: as §1

[4] = system: HPAFII (pancreatic) cells; test: Proliferation assay (CellTiter-Glo), HPAFII; format: cell-based; settings: Homo sapiens, HPAF-II, 72 h, 3 days
Procedure: as §1

[5] = molecular target: Activated ERK1 (Homo sapiens (Human), UniProt P27361); test: Active ERK1 kinase assay (Mobility Shift Assay); format: biochemical
Method in brief: (§2)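 ERK1 or ERK2 premixed with compound for 30 min at rt in 20 mM HEPES pH7.5, 0.01% Triton X-100, 2 mM DTT; reaction started with Fl-substrate, ATP and metal, run 1 h at rt. Microfluidic mobility-shift separation of product and substrate peptides; activity as P/(P+S) from peak heights.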

[6] = system: Mia Paca-2 (pancreatic) cells; test: Proliferation assay (CellTiter-Glo), Mia Paca-2; format: cell-based; settings: Homo sapiens, 72 h, Mia Paca-2 cells, 3 days
Procedure: as §1

[7] = system: A375 (melanoma) cells; test: Proliferation assay (CellTiter-Glo), A375; format: cell-based; settings: Homo sapiens, A-375, 72 h, 3 days
Procedure: as §1

[8] = system: sNF02.2 (neurofibromatosis type 1) cells; test: Proliferation assay (CellTiter-Glo), sNF02.2; format: cell-based; settings: 72 h, sNF02.2 cells, 3 days
Procedure: as §1

[9] = molecular target: Activated ERK2 (Homo sapiens (Human), UniProt P28482); test: Active ERK2 kinase assay (Mobility Shift Assay); format: biochemical
Method in brief: as §2

Sequence of Activated ERK1 (P27361 whole entry): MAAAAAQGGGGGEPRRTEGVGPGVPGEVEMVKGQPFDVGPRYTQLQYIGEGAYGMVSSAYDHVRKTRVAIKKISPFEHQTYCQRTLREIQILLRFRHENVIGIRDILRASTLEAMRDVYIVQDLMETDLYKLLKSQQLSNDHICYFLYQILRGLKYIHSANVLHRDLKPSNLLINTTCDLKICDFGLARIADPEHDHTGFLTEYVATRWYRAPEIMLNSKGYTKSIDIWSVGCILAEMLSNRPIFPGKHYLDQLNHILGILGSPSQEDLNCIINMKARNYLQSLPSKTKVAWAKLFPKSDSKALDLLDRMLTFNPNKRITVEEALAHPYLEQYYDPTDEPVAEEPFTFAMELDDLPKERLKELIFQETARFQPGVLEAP
Sequence of Activated ERK2 (P28482 whole entry): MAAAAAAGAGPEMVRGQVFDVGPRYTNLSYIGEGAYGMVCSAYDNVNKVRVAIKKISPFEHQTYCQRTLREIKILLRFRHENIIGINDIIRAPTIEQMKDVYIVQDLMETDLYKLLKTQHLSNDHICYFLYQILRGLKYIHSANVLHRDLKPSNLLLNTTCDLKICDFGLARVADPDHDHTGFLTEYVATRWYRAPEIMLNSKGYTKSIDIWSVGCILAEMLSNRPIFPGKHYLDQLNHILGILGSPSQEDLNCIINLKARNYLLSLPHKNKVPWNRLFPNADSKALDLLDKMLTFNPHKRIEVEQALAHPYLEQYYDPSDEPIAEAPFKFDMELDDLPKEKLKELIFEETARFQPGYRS

Row | SMILES | IC50 [1] | IC50 [2] | IC50 [3] | IC50 [4] | IC50 [5] | IC50 [6] | IC50 [7] | IC50 [8] | IC50 [9]
1 | O=C(Nc1ccc2[nH]nc(-c3ccncc3)c2c1)[C@@H]1CCN(CC(=O)N2CCN(c3ccc(-c4ncccn4)cc3)CC2)C1 [SCH772984] | 0.5 to 1 µM | ≤ 0.5 µM | 0.5 to 1 µM | ≤ 0.5 µM | ≤ 0.05 µM | ≤ 0.5 µM | ≤ 0.5 µM | ≤ 0.5 µM | –
2 | CC(C)Nc1cc(-c2c[nH]c(C(=O)N[C@H](CO)c3cccc(Cl)c3)c2)c(Cl)cn1 [BVD-523] | ≥ 1 µM | ≤ 0.5 µM | 0.5 to 1 µM | ≤ 0.5 µM | ≤ 0.05 µM | ≤ 0.5 µM | ≤ 0.5 µM | ≥ 1 µM | –
3 | Cc1cc(-c2n[nH]c3ccc(N4CC[C@]5(CCN(CC(=O)N6CC=C(c7ccc(-c8ncn(C)n8)cc7)CC6)C5)C4=O)cc23)ccn1 [Example 8, (S)-7-(2-(4-(4-(1-Methyl-1H-1,2,4-triazol-3-yl)phenyl)-3,6-dihydropyridin-1(2H)-yl)-2-oxoethyl)-2-(3-(2-methylpyridin-4-yl)-1H-indazol-5-yl)-2,7-diazaspiro[4.4]nonan-1-one] | ≤ 0.5 µM | ≤ 0.5 µM | ≤ 0.5 µM | ≤ 0.5 µM | ≤ 0.05 µM | ≤ 0.5 µM | ≤ 0.5 µM | ≤ 0.5 µM | ≤ 0.05 µM
4 | CC(C)Oc1ccc(-c2n[nH]c3ccc(N4CC[C@]5(CCN(CC(=O)N6CC=C(c7ccc(-c8ncn(C)n8)cc7)CC6)C5)C4=O)cc23)cn1 [Example 10, (S)-2-(3-(6-Isopropoxypyridin-3-yl)-1H-indazol-5-yl)-7-(2-(4-(4-(1-methyl-1H-1,2,4-triazol-3-yl)phenyl)-3,6-dihydropyridin-1 (2H)-yl)-2-oxoethyl)-2,7-diazaspiro[4.4]nonan-1-one] | ≥ 1 µM | ≤ 0.5 µM | 0.5 to 1 µM | ≤ 0.5 µM | ≤ 0.05 µM | ≤ 0.5 µM | ≤ 0.5 µM | ≥ 1 µM | ≤ 0.05 µM
